Experimental data published in patent US20070197608A1, “Piperazines as oxytocin agonists” (Ferring B.V., priority 2003, published 2007).

Target: T1, human OT receptor (Homo sapiens, UniProt P30559)
T1 construct: expressed in transfected cells; host or cells: mammalian cell line, e.g. Chinese hamster ovary (CHO), stably or transiently transfected; co-transfected with a firefly luciferase reporter (e.g. NFAT promoter)
T1 sequence (P30559 1-389): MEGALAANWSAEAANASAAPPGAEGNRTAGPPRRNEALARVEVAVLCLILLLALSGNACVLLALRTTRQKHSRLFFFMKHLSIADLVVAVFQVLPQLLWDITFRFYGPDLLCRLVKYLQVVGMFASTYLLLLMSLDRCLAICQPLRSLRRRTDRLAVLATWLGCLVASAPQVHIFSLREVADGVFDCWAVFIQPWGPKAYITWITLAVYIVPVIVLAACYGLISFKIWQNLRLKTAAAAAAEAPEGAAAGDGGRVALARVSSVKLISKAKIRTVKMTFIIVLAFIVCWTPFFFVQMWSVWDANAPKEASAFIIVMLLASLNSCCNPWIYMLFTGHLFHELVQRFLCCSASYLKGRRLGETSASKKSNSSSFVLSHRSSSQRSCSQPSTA
Test: human OT receptor agonist assay, luciferase reporter (NFAT promoter) in transfected CHO cells
Type: cell-based
Conditions: for OT (efficacy): maximal efficacy compared to the maximal stimulation observed with OT; for EC50: concentration at which the response is 50% of the maximum, 4-parameter logistic fit, luciferase reporter in cells expressing the human OT receptor
Protocol: In addition, the cells are transfected with a gene for firefly luciferase under the control of a suitable promoter, e.g. NFAT promoter. Contact of the OT receptor by an agonist leads to stimulation of luciferase synthesis, the extent of which is measured using commercially available reagents. Concentrations at which the response is 50% of the maximum are calculated by fitting of data to 4-parameter logistic curves. Maximal efficacy is calculated compared to the maximal stimulation observed with OT.

OT (efficacy) | EC50 | SMILES
16% | 24 nM | Cc1cc(C(=O)N2Cc3cnn(C)c3Nc3ccccc32)cc(C)c1CNC(=O)N1CCN(Cc2cc(O)cc(O)c2)CC1 [Example 2, 4-(3,5-Dihydroxy-benzyl)-piperazine-1-carboxylic acid 2,6-dimethyl-4-(3-methyl-4,10-dihydro-3H-2,3,4,9-tetraaza-benzo[f]azulene-9-carbonyl)-benzylamide]
41% | 58 nM | Cn1ncc2c1Nc1ccccc1N(C(=O)c1ccc(CNC(=O)N3CCN(Cc4cc(O)cc(O)c4)CC3)cc1Cl)C2 [Example 3, 4-(3,5-Dihydroxy-benzyl)-piperazine-1-carboxylic acid 3-chloro-4-(3-methyl-4,10-dihydro-3H-2,3,4,9-tetraaza-benzo[f]azulene-9-carbonyl)-benzylamide]
51% | 74 nM | Cn1ncc2c1Nc1ccccc1N(C(=O)c1ccc(CNC(=O)N3CCN(Cc4cc(O)cc(O)c4)CC3)c(F)c1)C2 [Example 4, 4-(3,5-Dihydroxy-benzyl)-piperazine-1-carboxylic acid 2-fluoro-4-(3-methyl-4,10-dihydro-3H-2,3,4,9-tetraaza-benzo[f]azulene-9-carbonyl)-benzylamide]

The next lines start with the molecule.

SMILES | OT (efficacy) | EC50
Cc1cc(C(=O)N2Cc3cnn(C)c3Nc3ccccc32)ccc1CNC(=O)N1CCN(Cc2cc(O)cc(O)c2)CC1 [Example 1, 4-(3,5-Dihydroxy-benzyl)-piperazine-1-carboxylic acid 2-methyl-4-(3-methyl-4,10-dihydro-3H-2,3,4,9-tetraaza-benzo[f]azulene-9-carbonyl)-benzylamide] | 76% | 
Cc1cc(C(=O)N2Cc3cnn(C)c3Nc3ccccc32)ccc1CNC(=O)N1CCN(Cc2cccc(C(=O)N(C)C)c2)CC1 [Example 5, 4-(3-Dimethylcarbamoyl-benzyl)-piperazine-1-carboxylic acid 2-methyl-4-(3-methyl-4,10-dihydro-3H-2,3,4,9-tetraaza-benzo[f]azulene-9-carbonyl)-benzylamide] | 13% | 33 nM
Cc1cc(C(=O)N2Cc3cnn(C)c3Nc3ccccc32)ccc1CNC(=O)N1CCN(Cc2cccc(C(=S)N(C)C)c2)CC1 [Example 6, 4-(3-Dimethylthiocarbamoyl-benzyl)-piperazine-1-carboxylic acid 2-methyl-4-(3-methyl-4,10-dihydro-3H-2,3,4,9-tetraaza-benzo[f]azulene-9-carbonyl)-benzylamide] | 21% | 190 nM
